Data set [1] relates to NCI-H522 Lung Cancer cell line. As to the kind of experiment: MTT cell proliferation / cytotoxicity assay, NCI-H522. The conditions noted are these: for ED50 (in words): NCI-H522, MTT assay; for EC50: MTT, read-out: Effective Dose 50 (ED50). It is filed as cell-based, human. How it is done:
(§1) Examples measuring the effectiveness of mer-[RuCl3(DMSO)(dmpyz)2 in treating two lines of cancer cells is presented herein. Lung Cancer Cell lines NCI-H522 and NCI-H23 from ATCC were grown in RPMI (growth medium) supplemented with 10% heat inactivated fetal bovine serum (FBS) along with penicillin and streptomycin. All cells were grown at humidified, carbon dioxide enriched atmosphere (+37° C. with 5% CO2).
(§2) NCI-H522 cells were seeded at 50,000 cells/well and NCI-H23 at 30,000cells/well in a 96-well microtiter plate in RPMI with 10% FBS. Cells were incubated at humidified atmosphere (+37° C. with 5% CO2) for overnight attachment. A mer-[RuCl3(DMSO)(dmpyz)2 drug along with the positive control drug Doxorubicin were used in following concentrations (100 μM, 33 μM, 11 μM, 3.7 μM, 1.2 μM, 0.4 μM per well of cells) and added in triplicates and incubated for 3 time durations (24 hrs,48 hrs,72 hrs) at humidified atmosphere (37° C. with 5% CO2). Thereafter the cells were treated with 10 μl (final concentration 0.5 mg/ml) 3-(4,5-dimethylthiazol-2-yl)- 2,5-diphenyltetrazolium bromide (MTT, see Cell Proliferation Kit I MTT Roche: Cat No: 11465007001). The microplate were incubated for 4 hours in a humidified atmosphere (+37° C., 5% CO2). Four hours later 100 μl of solubilization solution (from Roche MTT kit) was added into each well. The plate were allowed to stand overnight in the incubator in a humidified atmosphere (+37° C., 5% CO2). The complete solubilization of the purple formazan crystals was check for and measure the absorbance of the samples using a microplate (ELISA) reader. The wavelength was measure for absorbance of the formazan product at 562 nm the reference wavelength used was 630 nm. Percentage viable cells were calculated as below. % viable cells=(ab of sample-ab of blank/ab control-ab blank) X100 % cytotoxicity or % inhibition=100−% viable cells
(§3) The Effective Dose 50 (ED50) was extrapolated from the dose-response graph. The drug concentration that reduced the viability of the cells by 50% (ED50) was determined by plotting data points over a concentration range and calculating values using PRISM program.
(§4) The MTT assay is used to measure cellular metabolic activity as an indicator of cell viability, proliferation and cytotoxicity. This colorimetric assay is based on the reduction of a yellow tetrazolium salt (3-(4,5-dimethylthiazol-2-yl)-2,5-diphenyltetrazolium bromide or MTT) to purple formazan crystals by metabolically active cells. Viable cells produce enzymes that convert yellow MTT to insoluble purple formazan. The more viable cells present in a sample, the more intense the purple color. This test is widely used in the in vitro evaluation of cytotoxic potency of drugs. In the present study we applied the MTT assay to evaluate the potency of mer-[RuC3(DMSO)(dmpyz)2 anti-cancer drug in various human lung cancer cell lines.
(In general: Tetrazolium dyes change colour on reduction, which living cells bring about.)

Data set [2] concerns NCI-H23 Lung Cancer cell line. The experiment in a line: MTT cell proliferation / cytotoxicity assay, NCI-H23. The conditions noted are these: for ED50 (in words): NCI-H23, MTT assay; for EC50: MTT, read-out: Effective Dose 50 (ED50). It is filed as cell-based, human. How it is done:
as §1, §2, §3, §4

Another data set has as its system H522 cell lines (NSCLC). As to the kind of experiment: Ruthenium complex screening against cancer subtypes (FIG. 3). Type of data set: cell-based. From the text: Still, preliminary tests show promise that dosage of RuCl3(DMSO)(dmPyz)2 is effective against NSCLC subtypes. FIG. 3 is a table showing the results of Ruthenium complex screening conducted to test the efficacy of the current Ruthenium (III) complexes to various cancer subtypes.

Experimental findings from patent US12303484B2, “Method of treating cancer” (University of Louisiana at Lafayette, priority 2019, dated 2025) are described below.

Like-named read-outs stand apart in the source and are kept apart here.

For orientation: IC50 means the point on the concentration scale where inhibition reaches its midpoint. High values mean a need for much substance, low ones inhibition by little substance.

`COc1cccc2c1C(=O)c1c(O)c3c(c(O)c1C2=O)C[C@@](O)(C(=O)CO)C[C@@H]3O[C@H]1C[C@H](N)[C@H](O)[C@H](C)O1` [doxorubicin, Doxorubicin, reference compound]: the “ED50 (in words)” value in data set [1] and in data set [2] was “comparable to published data” each time.
As to mer-[RuCl3(DMSO)(dmpyz)2, the IC50 with H522 cell lines (NSCLC) (suggested from 97% inhibition at 10 micromole) is less than 10 µM. Besides, in the data set on H522 cell lines (NSCLC) (treatment of 10 micromole (M) purified, preliminary tests), the “inhibition of NSCLC” value was 97%. In addition, the cytotoxic response entry is given as “highly toxic” in data set [1] (H522 cell lines, 33 μM concentration) and “highly toxic” in data set [2] (H23 cell lines, 100 μM concentration). In addition, the EC50 in data set [1] (NCI-H522, 24 hrs treatment) amounted to 82.1 µM; in data set [1] (NCI-H522, 48 hrs treatment), 11.7 µM; in data set [1] (NCI-H522, 72 hrs treatment), 12.5 µM; in data set [2] (NCI-H23, 24 hrs treatment), 81.1 µM; in data set [2] (NCI-H23, 48 hrs treatment) it was 77.4 µM; in data set [2] (NCI-H23, 72 hrs treatment), 59.4 µM. Further, the “ED50 (in words)” value in data set [1] and in data set [2] was “modest micromolar” in each case. For the same compound, the cell viability result in data set [1] (NCI-H522, drug concentration 33 μM or more) is listed as “reduces to zero”; in data set [2] (NCI-H23, drug concentration 100 μM), “reduces to zero”.
